Data as given in patent publication EP4755384A1, “PHARMACEUTICAL COMPOSITION CONTAINING ANDROGEN RECEPTOR INHIBITOR/ANTAGONIST, METHOD AND USE” (Suzhou Kintor Pharmaceuticals, Inc., priority 2023, dated 2025).

Key:
[1] = system: mice; test: In-vivo efficacy experiment 1: hair scoring in depilated mice given DHT; set-up: key: 0 = no skin darkening, 5 = complete hair growth
Method: (§1) 100 mice were deeply anesthetized. First, the hair on the back of the mice was shaved off with an animal hair clipper. Then, depilatory cream (Veet, https://item.jd.com/6291245.html) was evenly applied to the skin surface of the mice. After leaving it for 7-10 minutes, the remaining hair was gently scraped off against the hair growth direction with a depilatory spatula. Finally, the residual depilatory cream on the skin surface was thoroughly washed off with a wet wipe to avoid skin burns in the mice.
(§2) The main observation indicators of this experiment are shown in FIG. 12 (literature on hair scoring: Biomolecules & Therapeutics, 17(3), 241-248 (2009)), which is described as follows: (Score 0: No darkening of skin colour observed in any areas; Score 1: Darkening of skin area from greyish to black; Score 2: Visible short hairs; Score 3: Sparse hairs; Score 4: Dense hairs; Score 5: Complete hair growth). After depilation, the mice were photographed and scored three times a week until the end of the experiment.
as §1, with “cream” for “cream (Veet, https://item.jd.com/6291245.html)”
DHT and test substances (compound of formula I and minoxidil) were administered starting on the day following depilation, which was recorded as Day 1 (the day of depilation was recorded as Day 0). 64 mice in good condition were randomly selected and assigned to each group. Table 1 Experimental grouping
(§3) According to the grouping in Table 1, and the corresponding administration dose, test substance concentration and administration volume, […] above experimental design and methods. For groups G7 and G8, which received a combined administration of the compound of formula I and minoxidil, one drug was administered first followed by the other, with the administration interval between the two drugs not exceeding 1 minute.
(§4) Starting from the first day of administration, body weight was weighed and recorded twice a week, and hair regrowth (anagen) scoring and photography were performed […], until the end of the experiment. Scoring was conducted according to the criteria described in the experimental design.

[2] = system: mice; test: In-vivo efficacy experiment 2: hair scoring in depilated mice given DHT; set-up: key: 0 = no skin darkening, 5 = complete hair growth
Method: as §1, with “120” for “100”
DHT and test substances (compound of formula I and minoxidil) were administered starting on the day following depilation, which was recorded as Day 1 (the day of depilation was recorded as Day 0). 86 mice in good condition were randomly selected and assigned to each group.
as §2, with “experiment. Table 4 Experimental grouping” for “experiment.”
as §3, with “4,” for “1,”, “groups G6,” for “groups”
as §4

[3] = Day 11, DHT model group: DHT 30 mg/kg subcutaneous injection QD + vehicle topical
[4] = Day 21, DHT model group: DHT 30 mg/kg subcutaneous injection QD + vehicle topical
[5] = Day 11, compound of formula I 0.5% (5 mg/mL) 150 µL topical QD, DHT 30 mg/kg subcutaneous QD
[6] = Day 21, compound of formula I 0.5% (5 mg/mL) 150 µL topical QD, DHT 30 mg/kg subcutaneous QD
[7] = Day 11, minoxidil 5% (50 mg/mL) 150 µL topical QD, DHT 30 mg/kg subcutaneous QD
[8] = Day 21, minoxidil 5% (50 mg/mL) 150 µL topical QD, DHT 30 mg/kg subcutaneous QD

SMILES: C[C@]12CCC(=O)C[C@@H]1CC[C@@H]1[C@@H]2CC[C@]2(C)[C@@H](O)CC[C@@H]12 [DHT, Dihydrotestosterone]
- Hair scoring in mice, Score ([1]; Day 7, DHT model group: DHT 30 mg/kg subcutaneous injection QD + vehicle topical): 0.00
- Hair scoring in mice, Score ([1]; Day 9, DHT model group: DHT 30 mg/kg subcutaneous injection QD + vehicle topical): 0.00
- Hair scoring in mice, Score [1, 3]: 0.13
- Hair scoring in mice, Score ([1]; Day 14, DHT model group: DHT 30 mg/kg subcutaneous injection QD + vehicle topical): 0.38
- Hair scoring in mice, Score ([1]; Day 16, DHT model group: DHT 30 mg/kg subcutaneous injection QD + vehicle topical): 0.63
- Hair scoring in mice, Score ([1]; Day 18, DHT model group: DHT 30 mg/kg subcutaneous injection QD + vehicle topical): 1.25
- Hair scoring in mice, Score [1, 4]: 1.75
- Hair scoring in mice, Score ([1]; Day 23, DHT model group: DHT 30 mg/kg subcutaneous injection QD + vehicle topical): 2.13
- Hair scoring in mice ([2]; Day 8, DHT model group: DHT 30 mg/kg subcutaneous injection QD + vehicle topical): 0.00
- Hair scoring in mice [2, 3]: 0.00
- Hair scoring in mice ([2]; Day 15, DHT model group: DHT 30 mg/kg subcutaneous injection QD + vehicle topical): 0.40
- Hair scoring in mice ([2]; Day 17, DHT model group: DHT 30 mg/kg subcutaneous injection QD + vehicle topical): 0.50
- Hair scoring in mice ([2]; Day 19, DHT model group: DHT 30 mg/kg subcutaneous injection QD + vehicle topical): 0.90
- Hair scoring in mice [2, 4]: 1.10

SMILES: COc1c(C#N)ccc(N2C(=O)C(C)(C)N(c3ccc(C)nc3)C2=S)c1F [compound of formula I, 4-(4,4-dimethyl-3-(6-methylpyridin-3-yl)-5-oxo-2-thioxoimidazolidin-1-yl)-3-fluoro-2-methoxybenzonitrile]
- Hair scoring in mice, Score ([1]; Day 7, compound of formula I 0.5% (5 mg/mL) 150 µL topical QD, DHT 30 mg/kg subcutaneous QD): 0.00
- Hair scoring in mice, Score ([1]; Day 7, compound of formula I 1.0% (10 mg/mL) 150 µL topical QD, DHT 30 mg/kg subcutaneous QD): 0.00
- Hair scoring in mice, Score ([1]; Day 9, compound of formula I 0.5% (5 mg/mL) 150 µL topical QD, DHT 30 mg/kg subcutaneous QD): 0.13
- Hair scoring in mice, Score ([1]; Day 9, compound of formula I 1.0% (10 mg/mL) 150 µL topical QD, DHT 30 mg/kg subcutaneous QD): 0.13
- Hair scoring in mice, Score [1, 5]: 0.38
- Hair scoring in mice, Score ([1]; Day 11, compound of formula I 1.0% (10 mg/mL) 150 µL topical QD, DHT 30 mg/kg subcutaneous QD): 0.13
- Hair scoring in mice, Score ([1]; Day 14, compound of formula I 0.5% (5 mg/mL) 150 µL topical QD, DHT 30 mg/kg subcutaneous QD): 0.88
- Hair scoring in mice, Score ([1]; Day 14, compound of formula I 1.0% (10 mg/mL) 150 µL topical QD, DHT 30 mg/kg subcutaneous QD): 0.38
- Hair scoring in mice, Score ([1]; Day 16, compound of formula I 0.5% (5 mg/mL) 150 µL topical QD, DHT 30 mg/kg subcutaneous QD): 1.13
- Hair scoring in mice, Score ([1]; Day 16, compound of formula I 1.0% (10 mg/mL) 150 µL topical QD, DHT 30 mg/kg subcutaneous QD): 1.00
- Hair scoring in mice, Score ([1]; Day 18, compound of formula I 0.5% (5 mg/mL) 150 µL topical QD, DHT 30 mg/kg subcutaneous QD): 1.75
- Hair scoring in mice, Score ([1]; Day 18, compound of formula I 1.0% (10 mg/mL) 150 µL topical QD, DHT 30 mg/kg subcutaneous QD): 1.38
- Hair scoring in mice, Score [1, 6]: 2.25
- Hair scoring in mice, Score ([1]; Day 21, compound of formula I 1.0% (10 mg/mL) 150 µL topical QD, DHT 30 mg/kg subcutaneous QD): 1.88
- Hair scoring in mice, Score ([1]; Day 23, compound of formula I 0.5% (5 mg/mL) 150 µL topical QD, DHT 30 mg/kg subcutaneous QD): 2.50
- Hair scoring in mice, Score ([1]; Day 23, compound of formula I 1.0% (10 mg/mL) 150 µL topical QD, DHT 30 mg/kg subcutaneous QD): 2.38
- Hair scoring in mice ([2]; Day 8, compound of formula I 0.25% (2.5 mg/mL) 150 µL topical QD, DHT 30 mg/kg subcutaneous QD): 0.00
- Hair scoring in mice ([2]; Day 8, compound of formula I 0.5% (5 mg/mL) 150 µL topical QD, DHT 30 mg/kg subcutaneous QD): 0.00
- Hair scoring in mice ([2]; Day 11, compound of formula I 0.25% (2.5 mg/mL) 150 µL topical QD, DHT 30 mg/kg subcutaneous QD): 0.00
- Hair scoring in mice [2, 5]: 0.00
- Hair scoring in mice ([2]; Day 15, compound of formula I 0.25% (2.5 mg/mL) 150 µL topical QD, DHT 30 mg/kg subcutaneous QD): 0.60
- Hair scoring in mice ([2]; Day 15, compound of formula I 0.5% (5 mg/mL) 150 µL topical QD, DHT 30 mg/kg subcutaneous QD): 0.90
- Hair scoring in mice ([2]; Day 17, compound of formula I 0.25% (2.5 mg/mL) 150 µL topical QD, DHT 30 mg/kg subcutaneous QD): 1.00
- Hair scoring in mice ([2]; Day 17, compound of formula I 0.5% (5 mg/mL) 150 µL topical QD, DHT 30 mg/kg subcutaneous QD): 1.40
- Hair scoring in mice ([2]; Day 19, compound of formula I 0.25% (2.5 mg/mL) 150 µL topical QD, DHT 30 mg/kg subcutaneous QD): 1.40
- Hair scoring in mice ([2]; Day 19, compound of formula I 0.5% (5 mg/mL) 150 µL topical QD, DHT 30 mg/kg subcutaneous QD): 1.70
- Hair scoring in mice ([2]; Day 21, compound of formula I 0.25% (2.5 mg/mL) 150 µL topical QD, DHT 30 mg/kg subcutaneous QD): 1.80
- Hair scoring in mice [2, 6]: 2.20

SMILES: Nc1cc(N2CCCCC2)nc(N)[n+]1[O-] [minoxidil, Minoxidil]
- Hair scoring in mice, Score ([1]; Day 7, minoxidil 2% (20 mg/mL) 150 µL topical QD, DHT 30 mg/kg subcutaneous QD): 0.00
- Hair scoring in mice, Score ([1]; Day 7, minoxidil 5% (50 mg/mL) 150 µL topical QD, DHT 30 mg/kg subcutaneous QD): 0.13
- Hair scoring in mice, Score ([1]; Day 9, minoxidil 2% (20 mg/mL) 150 µL topical QD, DHT 30 mg/kg subcutaneous QD): 0.29
- Hair scoring in mice, Score ([1]; Day 9, minoxidil 5% (50 mg/mL) 150 µL topical QD, DHT 30 mg/kg subcutaneous QD): 0.25
- Hair scoring in mice, Score ([1]; Day 11, minoxidil 2% (20 mg/mL) 150 µL topical QD, DHT 30 mg/kg subcutaneous QD): 0.57
- Hair scoring in mice, Score [1, 7]: 0.38
- Hair scoring in mice, Score ([1]; Day 14, minoxidil 2% (20 mg/mL) 150 µL topical QD, DHT 30 mg/kg subcutaneous QD): 0.86
- Hair scoring in mice, Score ([1]; Day 14, minoxidil 5% (50 mg/mL) 150 µL topical QD, DHT 30 mg/kg subcutaneous QD): 1.00
- Hair scoring in mice, Score ([1]; Day 16, minoxidil 2% (20 mg/mL) 150 µL topical QD, DHT 30 mg/kg subcutaneous QD): 1.14
- Hair scoring in mice, Score ([1]; Day 16, minoxidil 5% (50 mg/mL) 150 µL topical QD, DHT 30 mg/kg subcutaneous QD): 1.75
- Hair scoring in mice, Score ([1]; Day 18, minoxidil 2% (20 mg/mL) 150 µL topical QD, DHT 30 mg/kg subcutaneous QD): 1.86
- Hair scoring in mice, Score ([1]; Day 18, minoxidil 5% (50 mg/mL) 150 µL topical QD, DHT 30 mg/kg subcutaneous QD): 2.63
- Hair scoring in mice, Score ([1]; Day 21, minoxidil 2% (20 mg/mL) 150 µL topical QD, DHT 30 mg/kg subcutaneous QD): 2.29
- Hair scoring in mice, Score [1, 8]: 3.13
- Hair scoring in mice, Score ([1]; Day 23, minoxidil 2% (20 mg/mL) 150 µL topical QD, DHT 30 mg/kg subcutaneous QD): 2.71
- Hair scoring in mice, Score ([1]; Day 23, minoxidil 5% (50 mg/mL) 150 µL topical QD, DHT 30 mg/kg subcutaneous QD): 3.50
- Hair scoring in mice ([2]; Day 8, minoxidil 5% (50 mg/mL) 150 µL topical QD, DHT 30 mg/kg subcutaneous QD): 0.00
- Hair scoring in mice [2, 7]: 0.25
- Hair scoring in mice ([2]; Day 15, minoxidil 5% (50 mg/mL) 150 µL topical QD, DHT 30 mg/kg subcutaneous QD): 1.25
- Hair scoring in mice ([2]; Day 17, minoxidil 5% (50 mg/mL) 150 µL topical QD, DHT 30 mg/kg subcutaneous QD): 1.88
- Hair scoring in mice ([2]; Day 19, minoxidil 5% (50 mg/mL) 150 µL topical QD, DHT 30 mg/kg subcutaneous QD): 2.63
- Hair scoring in mice [2, 8]: 2.75
